{"source": "paper PMC12018770", "about": "“DEAD‐Box Helicase 6 Blockade in Brain‐Derived Aβ Oligomers From Alzheimer's Disease Patients Attenuates Neurotoxicity” (MedComm, 2025)", "molecules": {"B1": {"name": "lecanemab (antibody, chains of the INN, looked up, V domains shown)", "VH": "EVQLVESGGGLVQPGGSLRLSCSASGFTFSSFGMHWVRQAPGKGLEWVAYISSGSSTIYYGDTVKGRFTISRDNAKNSLFLQMSSLRAEDTAVYYCAREGGYYYGRSYYTMDYWGQGTTVTVSS", "VL": "DVVMTQSPLSLPVTPGAPASISCRSSQSIVHSNGNTYLEWYLQKPGQSPKLLIYKVSNRFSGVPDRFSGSGSGTDFTLRISRVEAEDVGIYYCFQGSHVPPTFGPGTKLEIK"}, "B2": {"name": "junction plakoglobin (protein)", "chain": "MEVMNLMEQPIKVTEWQQTYTYDSGIHSGANTCVPSVSSKGIMEEDEACGRQYTLKKTTTYTQGVPPSQGDLEYQMSTTARAKRVREAMCPGVSGEDSSLLLATQVEGQATNLQRLAEPSQLLKSAIVHLINYQDDAELATRALPELTKLLNDEDPVVVTKAAMIVNQLSKKEASRRALMGSPQLVAAVVRTMQNTSDLDTARCTTSILHNLSHHREGLLAIFKSGGIPALVRMLSSPVESVLFYAITTLHNLLLYQEGAKMAVRLADGLQKMVPLLNKNNPKFLAITTDCLQLLAYGNQESKLIILANGGPQALVQIMRNYSYEKLLWTTSRVLKVLSVCPSNKPAIVEAGGMQALGKHLTSNSPRLVQNCLWTLRNLSDVATKQEGLESVLKILVNQLSVDDVNVLTCATGTLSNLTCNNSKNKTLVTQNSGVEALIHAILRAGDKDDITEPAVCALRHLTSRHPEAEMAQNSVRLNYGIPAIVKLLNQPNQWPLVKATIGLIRNLALCPANHAPLQEAAVIPRLVQLLVKAHQDAQRHVAAGTQQPYTDGVRMEEIVEGCTGALHILARDPMNRMEIFRLNTIPLFVQLLYSSVENIQRVAAGVLCELAQDKEAADAIDAEGASAPLMELLHSRNEGTATYAAAVLFRISEDKNPDYRKRVSVELTNSLFKHDPAAWEAAQSMIPINEPYGDDMDATYRPMYSSDVPLDPLEMHMDMDGDYPIDTYSDGLRPPYPTADHMLA"}}, "key": {"Aβ42 oligomers [1]": {"test_system": "Aβ42 oligomers", "experiment": "Binding of biotin‐labeled short peptides to Aβ42 oligomers", "details": "biotin-labeled peptide probes; bands at 30 and 10 kDa for binders", "description": "We characterized the molecular mechanisms by which DDX6 influences Aβ oligomer neurotoxicity using real‐time quaking‐induced conversion (RT‐QuIC) to determine whether DDX6 promotes the formation of Aβ fibrillar plaques and oligomers. […] Next, we performed dot blotting assays (Figure 7D,E) on the four treatment groups using the A11 antibody. […] We also assessed the cytotoxic effects of the four treatment groups on HT‐22 cell cultures using CCK‐8 assays. […] Specific gray values were calculated using Total Lab 100 (Nonlinear Dynamics, Newcastle upon Tyne, UK).\n(A) Cell counting kit‐8 (CCK‐8) cytotoxicity assay (n = 3). […] Total Lab 100 analysis software was used to calculate the percentage of gray values for 157 polypeptide spots.\nThe Aβ42 peptide was obtained from Abcam (#ab120301, USA). Aβ42 was solubilized using 1 mM hexafluoroisopropanol (#105228; Sigma‐Aldrich, Germany) and evaporated overnight in a desiccator to form a dry film. The film was then dissolved in dimethyl sulfoxide (#D8418; Sigma‐Aldrich) to a concentration of 5 mM, mixed with phosphate‐buffered saline, and incubated for 72 h at 4°C. The GST‐DDX6 protein was synthesized by KMD Bioscience Biotech Co., Ltd. (Tianjin, China). The biotin‐labeled short peptide was synthesized by Hubei Qiangyao Biotechnology Co., Ltd. (Hubei, China)."}, "Aβ42 oligomers [2]": {"test_system": "Aβ42 oligomers", "experiment": "Peptide chip microarray of DDX6 peptides (1–157) with Aβ42 oligomers", "details": "Aβ oligomers 2.0 µg/mL, overnight 4°C; ECL; > 30% indicates effective binding site; Total Lab 100"}, "[3]": {"test_system": "human‐derived Aβ oligomers", "experiment": "Co-immunoprecipitation / Western blotting of protein-Aβ oligomer interaction in AD brain extracts", "format": "binding", "details": "IgG isotype control", "source_text": "After rigorous data analysis with SAINTexpress, four proteins (DDX6, DSP, JUP, and HRNR) were identified as potential Aβ oligomer‐binding partners. To validate these findings, we selected DSP and DDX6 as positive controls for co‐IP analysis; tau proteins were used as negative controls. Input samples, IP, co‐IP extracts, and IgG controls were adjusted to ensure equal amounts of protein for comparison. […] The IP enrichment effect was substantial for Aβ oligomers, DDX6, DSP, and tau proteins. In the co‐IP extracts for DDX6 and DSP, Aβ oligomers were detected at approximately 55 and 30 kDa, respectively (indicated by “ [drawing 1] ”). […] Isotype control IgG was used to exclude nonspecific binding (Figure 2A).\nA Co‐IP kit (Thermo Fisher Scientific; #26149, USA) was used for the assay. Antibodies (2 µg) were crosslinked to a reinforced AminoLink coupling resin (20 µL of beads) and immobilized on a Pierce spin column at room temperature. Protein extracts (1 mg) were added to the spin column and incubated overnight at 4°C with rotation. The spin column was then transferred to a new collection tube, and 60 µL of elution buffer (pH 2.8, containing tertiary amine) was added. The column was centrifuged, and the eluate was analyzed to detect the presence of the target protein.\nProtein concentrations in the co‐IP extracts were measured using a bicinchoninic acid assay (#23225, Thermo Fisher Scientific, USA). For each sample, 20 µL of protein was loaded, with the following amounts of human‐derived Aβ oligomers (AD1–AD6) used: 1.8 µg, 2.0 µg, 1.9 µg, 1.6 µg, 2.0 µg, and 1.8 µg, respectively. Equivalent amounts of co‐IP extracts were loaded into the remaining lanes. A 5× loading buffer was added to the protein samples to achieve a final concentration of 1×, and the samples were incubated at 95°C for 5 min [44]. […]\nB. The PVDF membrane was probed with the Aβ oligomer antibody (A11), indicating enrichment of Aβ oligomers (post-IP) with bands observed at 55 kDa and 30 kDa. Aβ oligomers were detected in the co-IP products of DDX6 (indicated by “✸”). […]"}, "[4]": {"test_system": "human‐derived Aβ oligomers", "experiment": "AP-MS with SAINTexpress scoring of binding to human‐derived Aβ oligomers", "details": "score 0 to 1; criteria SAINT score > 0.5 and fold change ≥ 2; AD1–AD6, n = 6", "source_text": "Not all identified proteins bind to Aβ oligomers. Therefore, we used the SAINTexpress statistical method to screen for proteins most likely to interact with human‐derived Aβ oligomers. SAINTexpress assigns probability scores to factors interacting with target proteins, providing a value between 0 and 1, where higher scores indicate a greater likelihood of interaction with Aβ oligomers. Based on the analyzed results, we plotted the fold change on the x‐axis and SAINT scores on the y‐axis, with each point representing a protein. Proteins meeting the criteria of a SAINT score > 0.5 and fold change ≥ 2 were considered the most likely to bind Aβ oligomers (highlighted in red). Through rigorous analysis, we identified four proteins as binding partners (Figure 1C): DDX6 (SAINT score = 0.5783), DSP (SAINT score = 0.6608), JUP (SAINT score = 0.5846), and HRNR (SAINT score = 0.5246).\nAn aliquot of each peptide mixture was loaded onto a trap column (in‐house‐fabricated column packed with a reversed‐phase ReproSil‐Pur C18‐AQ resin, 150 µm × 15 cm, C18, 3 µm, 100 Å, Dr. Maisch GmbH, Germany) connected to an analytical column (EASY‐Spray column, […] × 75 µm ID, PepMap RSLC C18, 2 µm, 100 Å, Thermo Scientific, USA) using the autosampler of an EASY‐nLC 1200 HPLC system (Thermo Fisher Scientific). The peptides were eluted using a gradient (solvent A: 0.1% formic acid in water; solvent B: 80% acetonitrile/0.1% formic acid in water; Sigma, Germany) directly into a Q Exactive Hybrid Quadrupole‐Orbitrap mass spectrometer (Thermo Fisher Scientific). The gradient program was as follows: 4%–8% solvent B over 2 min, 8%–28% solvent B over 43 min, 28%–40% solvent B over 10 min, 40%–95% solvent B over 1 min, and 95% solvent B for 10 min. The following mass spectrometry parameters were used: spray voltage, 2.2 kV; capillary temperature, 270°C; MS resolution, 70,000 at 400 m/z; MS precursor m/z range, 300.0–1800.0 m/z; activation type, high‐energy collision dissociation; normalized collision energy, 28.0; activation time, […]; and data‐dependent MS/MS, top 20 most intense peptide ions selected based on the preview scan in the Orbitrap.\nThe raw MS files (Figure S5) were analyzed and searched against species‐specific protein databases using MaxQuant (v1.6.2.10). The following parameters were applied: maximum missed cleavages, 2; precursor ion mass tolerance, 20 ppm; and MS/MS tolerance, 20 ppm. Peptides and proteins were filtered to achieve a false discovery rate of < 1% using a target‐decoy database strategy, and only proteins with at least two unique peptides were reported. […] SAINT is a probabilistic method for scoring protein–protein interactions in AP‐MS experiments, enabling the identification of proteins most likely to interact with target proteins. […]"}, "Aβ oligomers in AD brain": {"test_system": "Aβ oligomers in AD brain", "experiment": "IHC colocalization with Aβ oligomers in AD brain sections", "design": "species or system human", "details": "AD7–AD10, n = 4; fluorescence scan over 120 µm", "source_text": "To further validate the binding interactions between Aβ oligomers and the four proteins, we performed immunohistochemistry (IHC) on brain sections from four AD patients (AD7–AD10). We analyzed the colocalization of Aβ oligomers (red) with DDX6, JUP, HRNR, and DSP (all green), as well as 4',6‐diamidino‐2‐phenylindole (DAPI)‐stained nuclei (blue). […] We also performed fluorescence intensity scanning from left to right across stained brain tissue slices (120 µm). […] The combined results from co‐IP and IHC confirm that these four proteins can bind to Aβ oligomers.\nSections were dewaxed, subjected to antigen retrieval, and blocked. They were then incubated with primary antibody (1:500) overnight at 4°C, followed by secondary antibody (1:200). Nuclei were stained with DAPI (Beyotime; C1002, Shanghai, China) for 10 min in the dark."}, "AD patients": {"test_system": "AD patients", "details": "cited from earlier work"}}, "note": "“Also recorded” adds a separate entry of the source.", "data": [{"molecule": "DYCLKRELLMGIFEMGWE [34–45]", "values": [{"measurement": "interaction with Aβ42 oligomers", "setting": "Aβ42 oligomers [1]", "value": "all four binding peptides interacted with Aβ oligomers"}]}, {"molecule": "GIDIQAVNVVINFDF [compound 133]", "values": [{"measurement": "interaction with Aβ42 oligomers", "setting": "Aβ42 oligomers [1]", "value": "all four binding peptides interacted with Aβ oligomers"}, {"measurement": "gray value of spot on peptide array", "setting": "Aβ42 oligomers [2]", "value": "exceeding 30%"}]}, {"molecule": "IKPIPSNIDKSLYVAEYHSEPVED [153–156]", "values": [{"measurement": "interaction with Aβ42 oligomers", "setting": "Aβ42 oligomers [1]", "value": "all four binding peptides interacted with Aβ oligomers"}, {"measurement": "gray value of spot on peptide array", "setting": "Aβ42 oligomers [2]", "value": "exceeding 30%"}]}, {"molecule": "GKSGAYLIPLLERLD [compound 49]", "values": [{"measurement": "interaction with Aβ42 oligomers", "setting": "Aβ42 oligomers [1]", "value": "all four binding peptides interacted with Aβ oligomers"}, {"measurement": "gray value of spot on peptide array", "setting": "Aβ42 oligomers [2]", "value": "exceeding 30%"}]}, {"molecule": "desmoplakin [DSP]", "values": [{"measurement": "binding to Aβ oligomers by co‐IP", "setting": "[3]", "value": "DDX6 and DSP were also detected in Aβ oligomer co‐IP extracts; also recorded: DSP was detected in the co-IP products of Aβ oligomers"}, {"measurement": "SAINT score", "setting": "[4]", "value": 0.6608}, {"measurement": "colocalization with Aβ oligomers", "setting": "Aβ oligomers in AD brain", "value": "strong colocalization"}]}, {"molecule": "KPYEINLMEELTLKG [control peptide, reference compound]", "values": [{"measurement": "interaction with Aβ42 oligomers", "setting": "Aβ42 oligomers [1]", "value": "did not interact with Aβ oligomers"}]}, {"molecule": "tau: tau proteins were used as negative controls [reference compound]", "values": [{"measurement": "binding to Aβ oligomers by co‐IP", "setting": "[3]", "value": "No apparent binding was observed; also recorded: tau was not detected in the co-IP products of Aβ oligomers"}]}, {"molecule": "hornerin [HRNR]", "values": [{"measurement": "SAINT score", "setting": "[4]", "value": 0.5246}, {"measurement": "colocalization with Aβ oligomers", "setting": "Aβ oligomers in AD brain", "value": "strong colocalization"}]}, {"molecule": "solanezumab [reference compound]", "values": [{"measurement": "efficacy in clinical trials (in words)", "setting": "AD patients; ref [11], [12], [13], [14]", "value": "failed to demonstrate efficacy in improving cognitive function during key clinical trials"}]}, {"molecule": "B1", "values": [{"measurement": "brain shrinkage, share of AD patients", "setting": "AD patients; after 18 months of treatment, ref [16]", "value": "approximately 28%"}, {"measurement": "brain hemorrhage", "setting": "AD patients; early AD patients, ref [15]", "value": 17.3, "unit": "%"}, {"measurement": "edema or effusion", "setting": "AD patients; early AD patients, ref [15]", "value": 12.6, "unit": "%"}, {"measurement": "headaches", "setting": "AD patients; early AD patients, ref [15]", "value": 11.1, "unit": "%"}, {"measurement": "delay of cognitive decline", "setting": "AD patients; early‐stage AD patients, ref [15]", "value": 27, "unit": "%"}, {"measurement": "severe side effects (in words)", "setting": "AD patients; some patients, ref [15], [16]", "value": "severe side effects, including brain hemorrhage, brain shrinkage, and even death"}]}, {"molecule": "B2", "values": [{"measurement": "SAINT score", "setting": "[4]", "value": 0.5846}, {"measurement": "colocalization with Aβ oligomers", "setting": "Aβ oligomers in AD brain", "value": "strong colocalization"}]}]}
